Measured values: patent publication US20210348164A1, “ENDOGENOUS CYTOPLASMIC ALU COMPLEMENTARY DNA IN AGE-RELATED MACULAR DEGENERATION” (University of Virginia Patent Foundation, priority 2018, published 2021)
“Also recorded” adds a separate entry of the source.

System: Alu RNA-induced RPE degeneration
Assay: Alu RNA-induced RPE degeneration in wild-type mice (fundus photography, ZO-1 flat mounts)
Format: in vivo, mouse
Settings: WT mice
Method: Assessment of RPE degeneration. Subretinal injections were performed as previously described (Kaneko et al., 2011; Tarallo et al., 2012; Kerur et al., 2013; Fowler et al., 2014; Kim et al., 2014). Seven days after subretinal injection, RPE health was assessed by fundus photography and immunofluorescence staining of zonula occludens-1 (ZO-1) on RPE flat mounts (whole mount of posterior eye cup containing RPE and choroid layers). Mouse RPE/choroid flat mounts were fixed with 2% paraformaldehyde, stained with rabbit polyclonal antibodies against mouse ZO-1 (1:100; Invitrogen Corp. Carlsbad, Calif., United States of America) and visualized with Alexa-594 (Invitrogen Corp.). All images were obtained by microscopy (Model SP-5 (Leica Microsystems, Inc., Buffalo Grove, Ill., United States of America) or Nikon MR confocal microscope system (Nikon Instruments Inc. Melville, N.Y., United States of America). Imaging was performed by an operator blinded to the group assignments.
Quantification of RPE degeneration. Quantification of RPE degeneration was performed using two methodologies (binary assignment and cellular morphometry) as described previously (Kerur et al., 2018): Binary assignment (healthy versus unhealthy; Kerur et al., 2013; Fowler et al., 2014; Kim et al., 2014; Kerur et al., 2018) was independently performed by two blinded raters (inter-rater agreement=99.7%; Pearson r2=0.986, P<0.0001; Fleiss x=0.993, P<0.0001). Quantifying cellular morphometry for hexagonally packed cells was performed in semi-automated fashion by three masked graders by adapting our previous analysis of the planar architecture of corneal endothelial cell density (Ach et al., 2015), which resembles the RPE in its polygonal tessellation. Polymegethism (coefficient of variation of cell size), a prominent geometric feature of RPE cells in GA (Kaneko et al., 2011; Dridi et al., 2012; Grossniklaus et al., 2013; Ach et al., 2015), was quantified using the Konan Cell Check software (Ver. 4.0.1), a commercial U.S. FDA-cleared software that has been used for registration clinical trials, as previously described (Kerur et al., 2018).
Subretinal and intravitreous injections. Subretinal injections (1 μl for mice, 3 μl for rat) or intravitreous injections (0.5 μl for mice, 2 μl for rat) in mice or rat were performed using a 35-gauge needle (Ito Co. Fuji, Japan). In vivo transfection of Alu RNA or mutant Alu RNA (3.6-300 ng per eye); Alu complementary DNA (cDNA; 0.0036-90 ng per eye); Alu reverse sequence cDNA (3.6-90 ng per eye); or 7SL cDNA (3.6-90 ng per eye) was performed using 10% NEUROPORTER™ transfection reagent (Genlantis, San Diego, Calif., United States of America) as previously described (Kaneko et al., 2011; Tarallo et al., 2012). […]

[1] = intravitreous, high (500 μmol) doses

| Compound | Alu RNA-induced RPE degeneration [1] | Alu RNA-induced RPE degeneration (subretinal cholesterol-conjugated L1 siRNA vs control siRNA) |
| --- | --- | --- |
| CC(C)Nc1cccnc1N1CCN(C(=O)c2cc3cc(NS(C)(=O)=O)ccc3[nH]2)CC1 [DLV, delavirdine] | blocked Alu RNA toxicity; also recorded: inhibited | – |
| O=C1Nc2ccc(Cl)cc2[C@@](C#CC2CC2)(C(F)(F)F)O1 [EFV, efavirenz] | blocked Alu RNA toxicity; also recorded: inhibited | – |
| Cc1ccnc2c1NC(=O)c1cccnc1N2C1CC1 [NVP, nevirapine] | did not prevent Alu RNA-induced RPE degeneration at low or high doses | – |
| L1 siRNA: siRNA targeting L1; cholesterol-conjugated mouse L1 siRNA (SEQ ID NOs: 48 and 49) in vivo, human L1 siRNA sequences in human cells (chain 1 ACUAUUACUCUGAUACCTT; chain 2 UGUACUAAGGUCAAAUCTT; cholesterol conjugated, position not given here) | – | prevented Alu RNA-induced RPE degeneration in wild-type mice; also recorded: blocked Alu RNA induced RPE degeneration |
